In the experiment the target is T1, MINK1 (Homo sapiens, UniProt Q8N4C8).
T1 construct: purchased Thermo Fisher Scientific (Life Technologies) SelectScreen
Nature of the experiment: SelectScreen Z'LYTE. Type of experiment: biochemical. In outline:
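NU5455 was profiled across the SelectScreen Broad panel of kinase activity and binding assays. Z'LYTE reactions such as CSF1R ran at apparent Km ATP, while the Adapta CAMK1 assay used ATP listed as 10. Values are given as percent.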

T1 sequence (Q8N4C8 whole entry): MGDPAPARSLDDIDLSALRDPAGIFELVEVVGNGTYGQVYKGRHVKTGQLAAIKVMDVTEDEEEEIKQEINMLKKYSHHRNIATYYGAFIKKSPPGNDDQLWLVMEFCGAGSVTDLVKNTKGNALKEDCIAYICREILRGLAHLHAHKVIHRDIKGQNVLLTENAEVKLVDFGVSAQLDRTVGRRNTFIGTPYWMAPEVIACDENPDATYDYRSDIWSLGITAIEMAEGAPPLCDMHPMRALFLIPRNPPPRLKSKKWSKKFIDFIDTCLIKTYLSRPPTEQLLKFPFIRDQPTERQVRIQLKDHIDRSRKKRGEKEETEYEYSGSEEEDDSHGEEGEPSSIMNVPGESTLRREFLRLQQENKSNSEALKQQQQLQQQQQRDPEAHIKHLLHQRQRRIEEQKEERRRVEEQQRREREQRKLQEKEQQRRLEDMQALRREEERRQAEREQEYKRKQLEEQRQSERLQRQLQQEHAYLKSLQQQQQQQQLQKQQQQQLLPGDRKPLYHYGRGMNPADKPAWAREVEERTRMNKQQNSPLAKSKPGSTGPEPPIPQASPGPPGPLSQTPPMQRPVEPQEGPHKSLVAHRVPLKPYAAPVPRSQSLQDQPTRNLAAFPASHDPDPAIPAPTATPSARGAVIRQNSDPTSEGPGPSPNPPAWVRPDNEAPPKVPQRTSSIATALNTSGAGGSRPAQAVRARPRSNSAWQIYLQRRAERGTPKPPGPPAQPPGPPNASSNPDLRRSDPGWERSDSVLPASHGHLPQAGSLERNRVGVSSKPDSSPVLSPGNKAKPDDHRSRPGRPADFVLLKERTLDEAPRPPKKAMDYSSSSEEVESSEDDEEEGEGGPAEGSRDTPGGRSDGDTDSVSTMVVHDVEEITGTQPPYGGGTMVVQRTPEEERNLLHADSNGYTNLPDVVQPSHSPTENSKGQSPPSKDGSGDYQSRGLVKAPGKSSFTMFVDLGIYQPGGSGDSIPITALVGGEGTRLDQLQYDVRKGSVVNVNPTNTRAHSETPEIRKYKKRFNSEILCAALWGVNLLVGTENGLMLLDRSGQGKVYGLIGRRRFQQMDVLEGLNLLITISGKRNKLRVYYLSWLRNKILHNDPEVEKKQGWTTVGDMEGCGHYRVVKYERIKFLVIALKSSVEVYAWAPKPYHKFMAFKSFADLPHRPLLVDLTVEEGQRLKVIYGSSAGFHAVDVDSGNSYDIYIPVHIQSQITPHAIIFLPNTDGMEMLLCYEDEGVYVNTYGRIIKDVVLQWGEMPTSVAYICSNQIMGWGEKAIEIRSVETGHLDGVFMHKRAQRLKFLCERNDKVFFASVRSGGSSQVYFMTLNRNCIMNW

With `CN(C(=O)CN1CCOCC1)c1ccc2sc3c(-c4cccc5c(=O)cc(N6CC7CCC(C6)O7)oc45)cccc3c2c1` [NU5455], the inhibition at 1 µM is 4.6%.

The term inhibition denotes the drop in the measured response relative to a control, in per cent. Low readings indicate a weak effect, high ones a strong effect.

The values above are taken from PMC6934184, “Selective DNA-PKcs inhibition extends the therapeutic index of localized radiotherapy and chemotherapy” (The Journal of Clinical Investigation, 2019).
